Test results taken from patent US10519101B2, “Trans-cyclooctene amino and hydroxy acids and their use in multiple cycloaddition reactions for labeling of molecules” (EUROPEAN MOLECULAR BIOLOGY LABORATORY, priority 2014, dated 2019).
Entries after “also recorded” stand apart in the source; their conditions may differ. Blank lines part the entries; values can stand above or below the compound they belong to.

How the values were obtained:
tRNA^Pyl/PylRS^AF = target: T1, tRNA^Pyl/PylRS^AF (Methanosarcina mazei, UniProt Q8PWY1, Y306A/Y384F); test: Recombinant expression of GFP^TAG→UAA in E. coli (amber suppression, UAA incorporation); assay type: cell-based; conditions: for protein yields / incorporation rate compared with compound 2: E. coli, 1 mM UAA, GFP^Y39TAG; for incorporation rate compared with compound 2: FIG. 12; for expression yield of GFP^TAG→UAA (Coomassie SDS-PAGE): compared with TCO
T1 construct: expressed in transfected cells; host or cells: E. coli Top10 (Invitrogen), co-transformed with pEvolv tRNA^Pyl/PylRS^AF and pBAD GFP^Y39TAG

[1] = 1H-NMR assay of orthogonality of seSPIEDAC and SPIEDAC reactions; assay type: physicochemical; conditions: 5 mm dienophile, 10 mm tetrazine, DMSO-d6, 10 min at room temperature
Procedure: Stock solutions of the dienophiles in DMSO-d6 with a final concentration of 10 mm were prepared. A 20 mm stock of the formic acid salt of (4-(6-methyl-1,2,4,5-tetrazine-3-yl)phenyl)methanamine (termed as methyl tetrazine or Me-Tet-NH2) in DMSO-d6 was prepared, too. As control experiment, either the dienophile or the diene (Me-Tet-NH2) were mixed with DMSO-d6 1:1 (v/v; 760 μl total volume) to yield a final concentration of 5 mm or 10 mm, respectively, in the NMR tube. To confirm whether a dienophile reacts with the diene (Me-Tet-NH2) or not, the corresponding stocks were mixed 1:1 (v/v; 760 μl total volume) to yield a final concentration of 5 mm of the dienophile and 10 mm of the diene in the NMR tube. The samples were incubated for 10 min at room temperature before analyzed by ^1H-NMR.

[2] = Long time stability of the covalent bond in labeled proteins (FRET); conditions: labeled with Me-Tet-Cy3, excess filtered off, 4 h to 76 h
Procedure: To proof the stability of the formed covalent bonds between TCO* and the dye-Tet in a SPIEDAC reaction, long time FRET experiments were carried out. Basically, the same FRET assay as described above was used to test whether the fluorophores stays covalently attached to the protein or not over a period of 36 h. 200 nM GFP^TAG→3 were separately reacted with 2 μM Me-Tet-Cy3 at room temperature (rt) and the ratio between D and A fluorophore was followed over time.
In another experiment, Ni-NTA-purified GFP^TAG→UAA (1-4) was labeled with Me-Tet-Cy3 (2 h, 37° C.). Excess Me-Tet-Cy3 was filtered off (˜2 h). 200 nM labeled GFP^TAG>UAA+Cy3 (with 1-4) were followed over time by FRET as described above. Note that the first data point was taken approximately 4 h after adding the tetrazine to the proteins. No significant changes between the FRET ratio measured after 4 h and after 76 h were observed (FIG. 7).

HEK293T cells = test: Pulse-chase dual-color labeling of insulin receptor IR^TAG; assay type: cell-based
Procedure: For insulin receptor experiments, HEK293T cells were maintained in Dulbecco's Modified Eagle's Medium—DMEM (high glucose—4.5 g/l) supplemented with 10% FBS (Sigma), 1% L-glutamine (Invitrogen, Palo Alto, USA) and 1% Pen-Strep (Invitrogen) in a 5% CO2 atmosphere at 37° C. Cells were passaged every 2-3 days up to 15-20 passages. For microscopy, cells were seeded on 4-well chambered Lab-Tek #1.0 borosilicate coverglass (ThermoFisher, Ma USA) 15-24 h prior to transfections. Transfections were performed with JetPrime reagent (PegLab, Erlangen, Germany) according to the manufacturer's recommendations. In short, for double-transfections with IR and tRNA^Pyl/PylRS^AF vectors we used plasmids in 1:1 ratio keeping total amount of DNA at 1 μg. UAAs were added after the transfections in two pulses (see FIG. 2a). UAAs were dissolved in DMSO (250 mM stock of PrK; 100 mM stock of TCO*) or 20% formic-acid DMSO (500 mM stock of BCN; 250 mM stock of SCO). Each UAA was used at a final concentration of 250 μM. After the 2nd UAA pulse, cells were rinsed with fresh medium and kept overnight in DMEM.
In the morning following transfections, medium was exchanged to serum-free high glucose DMEM […], in which all the subsequent washing and labeling steps were also performed. The transfected cells were then labeled according to the following protocols. […]

[3] = Stability of UAAs by 1H-NMR without thiols; assay type: physicochemical; conditions: dPBS (pH 7.4)/dioxane-d8 (v/v 1:1); rt, 37° C., 60° C.; 72 h
Procedure: Therefore, 0.1 M NaOH (for E. coli cells) and DMSO (for mammalian cells) are well suited solvents for the preparation of stock solutions for biological experiments. However, stock solutions were stored at −20° C. and thaw 30 min before usage.
Taking the properties of the purified compounds into account, these conditions resemble the nearest physiological conditions possible, as they prevail in biological experiments (living cells, aqueous buffered solutions of proteins) ((a) B. R. Varga, M. Kallay, K. Hegyi, S. Beni, P. Kele, Chemistry 2012, 18, 822-828; b) R. van Geel, G. J. Pruijn, F. L. van Delft, W. C. Boelens, Bioconjugate chemistry 2012, 23, 392-398).

[4] = Stability of trans-cyclooctenyl isomers against thiols by 1H-NMR; assay type: physicochemical; conditions: two equivalents of cysteamine, 60° C., ten days (240 h)
Procedure: In order to test for stability against thiols, UAAs 2-4 were separately combined with two equivalents of cysteamine hydrochloride in dPBS/dioxane-d8 (v/v 1:1), NMR tubes were tightly sealed, and incubated at rt, 37° C., or 60° C. ^1H-NMR spectra were measured after 24 h of incubation and later time points (in case of 3). […] For all three trans-cyclooctene-containing UAAs, conversion of the trans-cyclooctenyl-form to its corresponding cis-cyclooctenyl-form was observed (FIG. 8b). […] These numbers were obtained by comparing the integrals for the double bond protons and the —CHO— protons (if possible/applicable) before and after the heat treatment as it was done before by others for similar compounds ((a) B. R. Varga, M. Kallay, K. Hegyi, S. Beni, P. Kele, Chemistry 2012, 18, 822-828; b) R. van Geel, G. J. Pruijn, F. L. van Delft, W. C. Boelens, Bioconjugate chemistry 2012, 23, 392-398; J. Yang, J. Seckute, C. M. Cole, N. K. Devaraj, Angew Chem Int Ed Engl 2012, 51, 7476-7479). Observations at different temperatures were consistent with the expectation that the higher the temperature, the faster/easier the isomerization. Isomerization to the cis-form continued in samples kept at rt or 37° C. after 24 h (data not shown).

[5] = FRET assay of labeling kinetics of GFP^TAG→UAA with Me-Tet-Cy3; conditions: tested experimental conditions of the FRET assay; listed as SCO
Procedure: For observation of labeling kinetics, GFP^TAG→UAA was expressed with 1-5 (for structures of UAAs see FIG. 1a). E. coli lysate was adjusted to a final GFP concentration of 200 nM based on absorbance spectra. H-Tet-Atto532 7 or Me-Tet-Cy3 8 (see FIG. 4), respectively, were added to a final concentration of 2 μM and fluorescence spectra (excitation at λ=450 nm, emission λ=470-650 nm) were recorded at different time points. The experiments were carried out in a total volume of 2 ml and continuous stirring. 1 mM stocks of the dyes in DMSO were used. Successful labeling of GFP^TAG→UAA was monitored by Foerster resonance energy transfer (FRET) from the GFP-chromophore (serving as a Donor, D) to the synthetic fluorophore (Acceptor, A) when covalently attached. In the individual spectra this is visible by a decrease of GFP-fluorescence (around λ=503-506 nm) and a simultaneous increase of Atto532- (λ=551 nm) or Cy3-fluorescence (λ=563 nm), respectively, over time (shown exemplarily for GFP^TAG→3 (TCO*) in the left panel of FIG. 5). […] Note that time point “0 min” is defined as the time point about 15 s after pipetting the dye to the protein solution. […]

T1 sequence (Q8PWY1 whole entry Y306A/Y384F): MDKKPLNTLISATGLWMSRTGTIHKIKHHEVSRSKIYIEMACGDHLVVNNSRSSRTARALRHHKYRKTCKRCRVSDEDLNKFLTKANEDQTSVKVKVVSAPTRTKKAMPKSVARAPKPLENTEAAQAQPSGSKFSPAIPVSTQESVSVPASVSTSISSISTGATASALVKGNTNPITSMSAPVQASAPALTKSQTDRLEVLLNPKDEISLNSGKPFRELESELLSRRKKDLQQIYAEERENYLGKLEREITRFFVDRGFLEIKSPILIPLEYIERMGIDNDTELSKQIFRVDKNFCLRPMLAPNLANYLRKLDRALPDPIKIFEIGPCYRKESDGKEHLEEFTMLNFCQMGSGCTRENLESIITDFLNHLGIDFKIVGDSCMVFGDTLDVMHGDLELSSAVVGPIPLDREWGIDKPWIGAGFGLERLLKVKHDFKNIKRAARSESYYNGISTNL

SMILES: N[C@@H](CCCCNC(=O)OC1/C=C/CCCCC1)C(=O)O (stereo in doubt) [Compound 3a, N-ε-((trans-Cyclooct-2-en-1-yloxy)carbonyl)-L-lysine]
- protein yields (tRNA^Pyl/PylRS^AF): 0.4 mg/L
- incorporation rate compared with compound 2 (tRNA^Pyl/PylRS^AF): more readily incorporated than compound 2 by about a factor of two
- expression yield of GFP^TAG→UAA (Coomassie SDS-PAGE) (tRNA^Pyl/PylRS^AF): higher expression yields than the TCO

SMILES: N[C@@H](CCCCNC(=O)OC1/C=C/CCCCC1)C(=O)O (stereo in doubt) [Compound 3b, N-ε-((trans-Cyclooct-2-en-1-yloxy)carbonyl)-L-lysine]
- protein yields (tRNA^Pyl/PylRS^AF): 0.4 mg/L
- incorporation rate compared with compound 2 (tRNA^Pyl/PylRS^AF): more readily incorporated than compound 2 by about a factor of two
- expression yield of GFP^TAG→UAA (Coomassie SDS-PAGE) (tRNA^Pyl/PylRS^AF): higher expression yields than the TCO

SMILES: OC1CC2C=CC1C2 (centres unmarked) [5-norbornene-2-ol]
- reaction with tetrazine Me-Tet-NH2 by 1H-NMR [1]: No new signals were detected

- stability of covalent bond, FRET ratio over time [2]: consistent FRET values over time
SMILES: N[C@@H](CCCCNC(=O)OCC1C2CCC#CCCC21)C(=O)O (some centres unmarked) [Compound 1]
- labeling of IR (confocal) (HEK293T cells; TCO* pulse, BCN chase, Me-Tet-Cy5, quencher, H-Tet-Atto532): no signal in the Atto532 channel was observed

- stability by 1H-NMR [3]: remained un-changed
SMILES: N[C@@H](CCCCNC(=O)OC1CC/C=C/CCC1)C(=O)O (stereo partly drawn) [Compound 2, N-ε-((trans-Cyclooct-4-en-1-yloxy)carbonyl)-L-lysine]

SMILES: N[C@@H](CCCCNC(=O)OC1/C=C/CCCCC1)C(=O)O (stereo partly drawn) [Compound 3, N-ε-((trans-Cyclooct-2-en-1-yloxy)carbonyl)-L-lysine]
- stability by 1H-NMR [3]: remained un-changed
- protein yields (tRNA^Pyl/PylRS^AF): 0.4 mg/L
- incorporation rate compared with compound 2 (tRNA^Pyl/PylRS^AF): more readily incorporated than compound 2 by about a factor of two
- expression yield of GFP^TAG→UAA (Coomassie SDS-PAGE) (tRNA^Pyl/PylRS^AF): higher expression yields than the TCO
- trans-form left after ten days [4]: more 3 (TCO*) was left in its trans-form than for 2 (TCO) and 4 (TCO^#) after 24 h
- stability of covalent bond, FRET ratio over time [2]: consistent FRET values over time

SMILES: N[C@@H](CCCCNC(=O)OC1C/C=C/CCCC1)C(=O)O (stereo partly drawn) [Compound 4, N-ε-((trans-Cyclooct-3-en-1-yloxy)carbonyl)-L-lysine]
- stability by 1H-NMR [3]: remained un-changed
- expression yield of GFP^TAG→UAA (Coomassie SDS-PAGE) (tRNA^Pyl/PylRS^AF): higher expression yields than the TCO

SMILES: N[C@@H](CCCCNC(=O)OC1C#CCCCCC1)C(=O)O (stereo partly drawn) [Compound 5, N-ε-((Cyclooct-2-yn-1-yloxy)carbonyl)-L-lysine]
- labeling of IR (confocal) (HEK293T cells; TCO* and SCO, Me-Tet-Cy5 then H-Tet-Atto532, 10 min): bright labeling of the IR in the plasma membrane for both channels
- Reactivity with Me-Tet (in words) [5]: basically no detectable reactivity; also recorded: no substantial reactivity with Me-Tet
